In publication PMC12441834, “Highly Potent and Subtype-Selective Sperm-Specific Potassium Channel SLO3 Inhibitors Display High Tissue Exposure in the Murine Female Reproductive Tract” (ACS Pharmacology & Translational Science, 2025):
Where “and” joins values, the source holds several entries; their conditions need not be identical. Identical values can stand only once.

Legend:
mouse SLO3 = target: T1, mouse SLO3 (Mus musculus, UniProt O54982); test: Whole-cell recording, mouse SLO3-γ2 expressed in HEK293 cells; type: cell-based; details: for IC50: HEK293 cells transfected with murine SLO3-γ2, read-out: mSLO3 IC50; for Hill coefficient: mouse SLO3-γ2 in HEK293 cells
T1 construct: expressed in transfected cells; host or cells: HEK293 (transient, Lipofectamine 3000, with pmaxGFP as marker)
T1 sequence (O54982 1-1121): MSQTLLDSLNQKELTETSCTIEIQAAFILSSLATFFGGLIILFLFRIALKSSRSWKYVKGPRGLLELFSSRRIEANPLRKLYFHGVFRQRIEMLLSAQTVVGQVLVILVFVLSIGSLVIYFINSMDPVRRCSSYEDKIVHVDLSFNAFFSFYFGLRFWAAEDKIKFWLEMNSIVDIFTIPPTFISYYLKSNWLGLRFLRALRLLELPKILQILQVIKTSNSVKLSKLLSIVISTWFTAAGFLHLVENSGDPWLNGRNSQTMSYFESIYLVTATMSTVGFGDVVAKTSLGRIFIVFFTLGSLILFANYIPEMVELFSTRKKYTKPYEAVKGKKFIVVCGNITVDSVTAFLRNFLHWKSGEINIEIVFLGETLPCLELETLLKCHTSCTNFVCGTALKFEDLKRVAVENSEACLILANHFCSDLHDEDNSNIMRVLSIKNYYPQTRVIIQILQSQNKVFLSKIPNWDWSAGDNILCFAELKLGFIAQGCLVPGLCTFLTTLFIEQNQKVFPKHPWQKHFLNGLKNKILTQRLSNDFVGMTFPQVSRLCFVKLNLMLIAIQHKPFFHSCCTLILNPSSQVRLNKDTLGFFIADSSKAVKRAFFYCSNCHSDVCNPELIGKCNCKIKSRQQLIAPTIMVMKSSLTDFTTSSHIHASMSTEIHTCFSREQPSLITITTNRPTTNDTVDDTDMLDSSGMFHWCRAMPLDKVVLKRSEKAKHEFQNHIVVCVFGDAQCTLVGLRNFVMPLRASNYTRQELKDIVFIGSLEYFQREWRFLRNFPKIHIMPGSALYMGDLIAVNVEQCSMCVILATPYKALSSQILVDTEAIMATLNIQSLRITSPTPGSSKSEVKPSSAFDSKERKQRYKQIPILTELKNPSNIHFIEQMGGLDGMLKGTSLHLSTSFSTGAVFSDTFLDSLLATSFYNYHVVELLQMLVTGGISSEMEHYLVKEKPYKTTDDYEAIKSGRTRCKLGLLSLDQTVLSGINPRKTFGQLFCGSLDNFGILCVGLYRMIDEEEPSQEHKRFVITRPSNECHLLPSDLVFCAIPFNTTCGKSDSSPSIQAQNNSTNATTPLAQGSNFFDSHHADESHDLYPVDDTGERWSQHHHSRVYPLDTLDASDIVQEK
T1 sequence (Q5M8M9 24-314 partner): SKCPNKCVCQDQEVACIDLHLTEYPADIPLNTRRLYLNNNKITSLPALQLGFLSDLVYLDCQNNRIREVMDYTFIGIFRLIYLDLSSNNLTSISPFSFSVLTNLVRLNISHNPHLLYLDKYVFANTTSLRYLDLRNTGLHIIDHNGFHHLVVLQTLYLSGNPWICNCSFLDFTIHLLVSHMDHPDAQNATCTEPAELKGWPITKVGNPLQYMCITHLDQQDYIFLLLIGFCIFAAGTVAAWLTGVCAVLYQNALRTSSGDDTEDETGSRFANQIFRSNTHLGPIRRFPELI
Protocol: HEK293 cells were plated at a density of ∼400,000 cells per 40 mm dish the day before transfection. Lipofectamine 3000 transfection reagent (catalog #L3000015; Thermo Fisher Scientific) was used to transfect HEK293 cells following manufacturer’s instructions. Per 40 mm dish, 2.25 μg of mouse SLO3 and its auxiliary subunit γ2 cDNAs (1:1) were added to cell layers that were 70–90% confluent. As a marker for transfection, cells were cotransfected with pmaxGFP, a CMV plasmid expressing green fluorescent protein (Amaxa Biosystems) at 0.2 μg per dish. After transfection, the cells were incubated at 37 °C with 5% CO2 for 2–4 d until recording.
Voltage-clamp recordings were performed using an Axopatch 200B amplifier (Molecular Devices). Recordings were filtered at 5 kHz with the internal filter of the amplifier and digitized at 50 kHz using a Digidata 1550B digitizer (Molecular Devices). Recording pipettes were pulled from borosilicate glass with tip resistances of 3–8 MΩ after filling with pipette solution containing (in mM): 140 KMES, 1 EGTA, 10 HEPES, pH 7.4 with KOH. Bath solutions contained (in mM): 135 NaMES, 5 KMES, 2 MgCl2, and 10 HEPES, pH 7.4 with NaOH. Experiments were performed at room temperature (∼22 °C). Whole-cell currents were evoked from a holding potential of −60 mV in steps from −80 to +100 mV in 10 mV increments. Test compounds were prepared daily from a 10 mM stock solution (in DMSO).
Data were analyzed with a pClamp 10.6 (Molecular Devices). VU6047606 and VU6032735 inhibition dose–response relationships were fit by the Hill equation in OriginPro 7.5 (OriginLab Corporation): R=1/1+(C/IC50)^n+Ioff , in which R is fractional unblock, C is compound concentration, IC50 is the half inhibition concentration, n is the Hill coefficient, and I off is an offset item for leak current. Error bars in the figures represent the SDs. Each data point is averaged from at least 5 measurements. Curve-fitting results are reported as the fitted values with standard error, which was estimated by OriginPro according to the Error Propagation formula.

[1] = Multispecies hepatocyte MetID; type: in vitro ADME, mouse; details: 4 h incubation with hepatocytes, 10 μM
Adrenergic α1B = Adrenergic α1B (Homo sapiens, UniProt P35368); test: LeadProfilingScreen radioligand binding
[2] = tested on: GABAA, Flunitrazepam, Central; test: LeadProfilingScreen radioligand binding; set-up: species or system rat
Glucocorticoid = Glucocorticoid (Homo sapiens, UniProt P04150); test: LeadProfilingScreen radioligand binding
Glutamate, NMDA, Agonism = test: LeadProfilingScreen radioligand binding; set-up: species or system rat
[3] = target: Leukotriene, Cysteinyl CysLT1 (Homo sapiens, UniProt Q9Y271); test: LeadProfilingScreen radioligand binding
Muscarinic M2 = Muscarinic M2 (Homo sapiens, UniProt P08172); test: LeadProfilingScreen radioligand binding
Muscarinic M3 = Muscarinic M3 (Homo sapiens, UniProt P20309); test: LeadProfilingScreen radioligand binding
Opiate μ (OP3, MOP) = Opiate μ (OP3, MOP) (Homo sapiens, UniProt P35372); test: LeadProfilingScreen radioligand binding
Phorbol Ester = test: LeadProfilingScreen radioligand binding; set-up: species or system mouse
Purinergic P2X = test: LeadProfilingScreen radioligand binding; set-up: species or system rat

Muscarinic M3, sequence (P20309 whole entry): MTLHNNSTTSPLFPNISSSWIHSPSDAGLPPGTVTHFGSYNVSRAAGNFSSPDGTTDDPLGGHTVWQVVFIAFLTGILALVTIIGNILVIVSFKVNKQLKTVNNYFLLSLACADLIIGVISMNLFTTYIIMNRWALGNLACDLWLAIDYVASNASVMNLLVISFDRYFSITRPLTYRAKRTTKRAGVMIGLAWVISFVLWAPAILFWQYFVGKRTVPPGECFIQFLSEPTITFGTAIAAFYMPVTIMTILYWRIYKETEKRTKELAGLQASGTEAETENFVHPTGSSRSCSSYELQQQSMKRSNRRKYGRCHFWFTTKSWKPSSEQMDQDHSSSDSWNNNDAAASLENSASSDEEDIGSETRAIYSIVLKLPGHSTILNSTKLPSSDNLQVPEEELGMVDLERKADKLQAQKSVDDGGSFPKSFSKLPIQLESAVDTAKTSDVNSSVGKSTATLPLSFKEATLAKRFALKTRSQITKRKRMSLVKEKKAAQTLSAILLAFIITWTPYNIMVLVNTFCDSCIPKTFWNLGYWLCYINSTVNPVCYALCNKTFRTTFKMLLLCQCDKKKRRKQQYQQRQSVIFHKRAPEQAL
Opiate μ (OP3, MOP), sequence (P35372 whole entry): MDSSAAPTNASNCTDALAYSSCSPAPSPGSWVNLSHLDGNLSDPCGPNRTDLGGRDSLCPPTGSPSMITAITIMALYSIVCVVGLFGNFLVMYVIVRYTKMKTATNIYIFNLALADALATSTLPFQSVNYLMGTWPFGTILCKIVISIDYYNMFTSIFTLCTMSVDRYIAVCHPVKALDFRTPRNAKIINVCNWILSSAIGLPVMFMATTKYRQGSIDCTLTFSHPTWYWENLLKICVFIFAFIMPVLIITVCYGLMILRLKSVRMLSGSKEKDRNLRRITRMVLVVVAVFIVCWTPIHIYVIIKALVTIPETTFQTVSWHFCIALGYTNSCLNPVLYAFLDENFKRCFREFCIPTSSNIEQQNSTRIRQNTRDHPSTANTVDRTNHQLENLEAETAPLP
Leukotriene, Cysteinyl CysLT1, sequence (Q9Y271 whole entry): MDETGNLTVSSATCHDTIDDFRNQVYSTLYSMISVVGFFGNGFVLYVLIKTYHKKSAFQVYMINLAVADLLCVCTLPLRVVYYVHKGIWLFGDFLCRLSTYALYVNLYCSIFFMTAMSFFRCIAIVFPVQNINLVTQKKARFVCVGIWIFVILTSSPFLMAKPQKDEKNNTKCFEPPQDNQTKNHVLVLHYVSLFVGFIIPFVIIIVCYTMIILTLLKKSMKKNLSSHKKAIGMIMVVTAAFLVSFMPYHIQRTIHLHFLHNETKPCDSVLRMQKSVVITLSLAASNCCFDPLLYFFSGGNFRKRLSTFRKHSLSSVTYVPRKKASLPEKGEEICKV
Adrenergic α1B, sequence (P35368 whole entry): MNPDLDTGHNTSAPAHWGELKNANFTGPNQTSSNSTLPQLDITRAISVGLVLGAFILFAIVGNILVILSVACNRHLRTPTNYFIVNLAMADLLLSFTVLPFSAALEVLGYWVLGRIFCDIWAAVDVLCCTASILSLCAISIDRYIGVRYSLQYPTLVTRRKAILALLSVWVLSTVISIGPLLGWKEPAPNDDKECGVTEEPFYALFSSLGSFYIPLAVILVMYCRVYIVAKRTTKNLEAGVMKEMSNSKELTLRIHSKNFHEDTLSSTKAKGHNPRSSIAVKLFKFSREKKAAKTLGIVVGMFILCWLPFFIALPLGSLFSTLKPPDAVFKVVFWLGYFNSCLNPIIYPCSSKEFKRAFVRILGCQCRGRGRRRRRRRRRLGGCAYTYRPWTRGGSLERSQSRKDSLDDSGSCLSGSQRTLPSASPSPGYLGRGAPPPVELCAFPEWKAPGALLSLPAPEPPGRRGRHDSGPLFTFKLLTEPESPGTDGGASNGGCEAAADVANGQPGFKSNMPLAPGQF
Glucocorticoid, sequence (P04150 whole entry): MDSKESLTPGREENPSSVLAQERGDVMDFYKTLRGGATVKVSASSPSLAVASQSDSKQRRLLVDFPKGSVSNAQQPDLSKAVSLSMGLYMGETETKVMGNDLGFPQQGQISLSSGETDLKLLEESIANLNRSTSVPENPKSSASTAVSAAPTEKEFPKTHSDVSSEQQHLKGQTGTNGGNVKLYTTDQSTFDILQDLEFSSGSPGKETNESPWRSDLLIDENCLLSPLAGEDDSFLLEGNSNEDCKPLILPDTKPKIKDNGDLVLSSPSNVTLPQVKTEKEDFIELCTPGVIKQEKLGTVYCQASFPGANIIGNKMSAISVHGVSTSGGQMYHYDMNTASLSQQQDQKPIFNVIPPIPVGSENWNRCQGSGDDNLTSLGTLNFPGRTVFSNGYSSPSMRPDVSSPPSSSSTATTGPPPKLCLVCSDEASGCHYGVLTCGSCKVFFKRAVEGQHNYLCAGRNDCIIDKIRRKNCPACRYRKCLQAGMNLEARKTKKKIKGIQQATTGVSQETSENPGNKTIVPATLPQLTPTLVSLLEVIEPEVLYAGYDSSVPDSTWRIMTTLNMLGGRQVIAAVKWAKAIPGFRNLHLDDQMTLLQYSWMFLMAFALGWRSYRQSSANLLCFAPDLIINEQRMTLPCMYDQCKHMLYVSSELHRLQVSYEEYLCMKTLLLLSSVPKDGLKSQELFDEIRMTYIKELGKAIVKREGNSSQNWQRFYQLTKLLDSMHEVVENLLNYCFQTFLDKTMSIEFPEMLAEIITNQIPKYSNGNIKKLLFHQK
Muscarinic M2, sequence (P08172 whole entry): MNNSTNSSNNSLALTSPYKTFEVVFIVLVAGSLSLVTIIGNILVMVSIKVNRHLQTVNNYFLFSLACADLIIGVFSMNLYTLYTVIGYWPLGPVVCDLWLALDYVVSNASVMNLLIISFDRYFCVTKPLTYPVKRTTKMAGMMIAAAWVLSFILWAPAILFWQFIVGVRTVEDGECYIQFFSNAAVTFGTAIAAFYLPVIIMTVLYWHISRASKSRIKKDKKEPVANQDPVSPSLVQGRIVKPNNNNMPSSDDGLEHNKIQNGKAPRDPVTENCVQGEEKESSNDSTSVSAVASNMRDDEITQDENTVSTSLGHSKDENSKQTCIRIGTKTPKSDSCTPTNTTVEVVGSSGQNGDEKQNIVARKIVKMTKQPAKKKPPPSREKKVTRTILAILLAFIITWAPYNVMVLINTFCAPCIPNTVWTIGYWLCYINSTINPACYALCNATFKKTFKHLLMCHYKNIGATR

SMILES: Cc1cc(Cl)cc2sc(O[C@H]3CCN(C(=O)CCCS(=O)(=O)c4cccc(Br)c4)C[C@H]3F)nc12 [VU6047606]
- IC50 (mouse SLO3): 1.15 µM
- Hill coefficient (mouse SLO3): 0.83 ± 0.19
- fold less potent on murine SLO3 than on human SLO3 (mouse SLO3; mouse versus human SLO3): ~7 fold
- % of Parent Related Material, Mouse [1]: 84.99% and > 82%
- inhibition at 10 µM (Adrenergic α1B): 12%
- % inhibition at 10 μM [2]: 11%
- inhibition at 10 µM (Glucocorticoid): 18%
- % inhibition at 10 μM (Glutamate, NMDA, Agonism): -18%
- inhibition at 10 µM [3]: 2%
- inhibition at 10 µM (Muscarinic M2): -6%
- inhibition at 10 µM (Muscarinic M3): 13%
- inhibition at 10 µM (Opiate μ (OP3, MOP)): 22%
- % inhibition at 10 μM (Phorbol Ester): 22%
- % inhibition at 10 μM (Purinergic P2X): 1%

SMILES: O=C(c1ccc(OCc2ccc(OC(F)(F)F)cc2)cc1)N1CCN(c2ccc(C(F)(F)F)cn2)CC1 [VU6032735]
- IC50 (mouse SLO3): 0.73 µM
- fold more potent than VU6047606 on mouse SLO3 (mouse SLO3; HEK293 cells, mSLO3-γ2): ~1.6 fold
- Hill coefficient (mouse SLO3): 1.03 ± 0.02
- % of Parent Related Material, Mouse [1]: > 98%
- inhibition at 10 µM (Adrenergic α1B): -5%
- % inhibition at 10 μM [2]: 5%
- inhibition at 10 µM (Glucocorticoid): 10%
- % inhibition at 10 μM (Glutamate, NMDA, Agonism): -8%
- inhibition at 10 µM [3]: -3%
- inhibition at 10 µM (Muscarinic M2): -10%
- inhibition at 10 µM (Muscarinic M3): 7%
- inhibition at 10 µM (Opiate μ (OP3, MOP)): 11%
- % inhibition at 10 μM (Phorbol Ester): 12%
- % inhibition at 10 μM (Purinergic P2X): 1%
